Assay results reported in US5440016A, “Peptides of the formula (KFmoc) ZZZ and their uses” (priority 1993, dated 1995).
Square brackets hold non-standard residues; d marks the D form. Ends that are not written are not given here. Peptide text beside a SMILES is read from it. * marks the point of attachment. Fmoc = O=C(OCC1c2ccccc2-c2ccccc21)*; Abu = CC[C@H](N)C(=O)O; Aib = CC(C)(N)C(=O)O; GABA = NCCCC(=O)O

Experiments:
[1] = tested on: Human red blood cells (RBCs); assay: Hemolytic activity; type: cell-based; settings: Tables 18-21
Protocol: Each assay was carried out in 96-well culture tissue plates. Four wells per plate contain 125 μl of a non-peptide positive control (1% Triton in de-ionized water), and four wells per plate contain 125 μl of a control blank, phosphate buffered saline (PBS). The hemolytic peptide melittin was used as comparative control. The controls served to detect possible contamination and to calculate the percent hemolysis of each peptide. Human red blood cells (RBCs) were washed with PBS and centrifuged to separate them from the serum. The cells were then resuspended in PBS to a final suspension of 0.5% RBC. 125 μl of this suspension was added to the peptides and controls solution. The release of hemoglobin resulting from the cell lysis was determined by measuring the OD at 414 nm of 100 μl of the supernatant.

[2] = biological target: melittin (Apis mellifera, UniProt P01501); assay: cell-based; settings: read-out: IC50, inhibition of melittin (converted)
Sequence of melittin (P01501 44-69 limits assumed): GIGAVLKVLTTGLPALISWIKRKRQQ

Molecule | HD50 (concentration necessary to lyse 50% of the cells) [1] | IC50 [2]
CC[C@H](NC(=O)[C@H](NC(=O)[C@@H](CS)NC(=O)[C@H](CCCCN)NC(=O)OCC1c2ccccc2-c2ccccc21)[C@H](C)CC)C(N)=O [(KFmoc)ci(aABA)-NH2] (Fmoc-K[dC][dI][Abu]-NH2) | 29 µg/mL | –
CC[C@@H](C)[C@@H](NC(=O)[C@@H](CS)NC(=O)[C@H](CCCCN)NC(=O)OCC1c2ccccc2-c2ccccc21)C(=O)NC(C)(C)C(N)=O [(KFmoc)ci(aAIB)-NH2] (Fmoc-K[dC][dI][Aib]-NH2) | 28 µg/mL | –
CC[C@@H](C)[C@@H](NC(=O)[C@@H](CS)NC(=O)[C@H](CCCCN)NC(=O)OCC1c2ccccc2-c2ccccc21)C(=O)NCCCC(N)=O [(KFmoc)ci(gABA)-NH2] (Fmoc-K[dC][dI][GABA]-NH2) | 54 µg/mL | –
CC[C@@H](C)[C@@H](NC(=O)[C@@H](CS)NC(=O)[C@H](CCCCN)NC(=O)OCC1c2ccccc2-c2ccccc21)C(=O)N[C@@H](C)C(N)=O [(KFmoc)ciA-NH2] (Fmoc-K[dC][dI]A-NH2) | 68 µg/mL | –
CC[C@@H](C)[C@@H](NC(=O)[C@@H](CS)NC(=O)[C@H](CCCCN)NC(=O)OCC1c2ccccc2-c2ccccc21)C(=O)N[C@@H](CS)C(N)=O [(KFmoc)ciC-NH2] (Fmoc-K[dC][dI]C-NH2) | 400 µg/mL | –
CC[C@@H](C)[C@@H](NC(=O)[C@@H](CS)NC(=O)[C@H](CCCCN)NC(=O)OCC1c2ccccc2-c2ccccc21)C(=O)N[C@@H](Cc1ccccc1)C(N)=O [(KFmoc)ciF-NH2] (Fmoc-K[dC][dI]F-NH2) | 295 µg/mL | –
Ac-FDIWFE-NH2 [Ac-FDIWFE-NH2] | – | 185 µM
Ac-FDIWFK-NH2 [Ac-FDIWFK-NH2] | – | 128 µM
Ac-FDIYCE-NH2 [Ac-FDIYCE-NH2] | – | 229 µM
Ac-FDIYFE-NH2 [Ac-FDIYFE-NH2] | – | 1050 µM
Ac-FIIWCE-NH2 [Ac-FIIWCE-NH2] | – | 4 µM
Ac-FIIWFE-NH2 [Ac-FIIWFE-NH2] | – | 6.03 µM
Ac-FIIWFK-NH2 [Ac-FIIWFK-NH2] | – | 1450 µM
Ac-FIIYCE-NH2 [Ac-FIIYCE-NH2] | – | 5.68 µM
Ac-FIIYFE-NH2 [Ac-FIIYFE-NH2] | – | 7.8 µM
Ac-FIIYFK-NH2 [Ac-FIIYFK-NH2] | – | 419 µM
Ac-FQIWCE-NH2 [Ac-FQIWCE-NH2] | – | 10.9 µM
Ac-FQIWFE-NH2 [Ac-FQIWFE-NH2] | – | 9.01 µM
Ac-FQIYCE-NH2 [Ac-FQIYCE-NH2] | – | 16.6 µM
Ac-FQIYFE-NH2 [Ac-FQIYFE-NH2] | – | 21.4 µM
Ac-IDIWCE-NH2 [Ac-IDIWCE-NH2] | – | 978 µM
Ac-IDIWCK-NH2 [Ac-IDIWCK-NH2] | – | 130 µM
Ac-IDIYCE-NH2 [Ac-IDIYCE-NH2] | – | 361 µM
Ac-IDIYFE-NH2 [Ac-IDIYFE-NH2] | – | 355 µM
Ac-IDIYFK-NH2 [Ac-IDIYFK-NH2] | – | 918 µM
Ac-IIIWCE-NH2 [Ac-IIIWCE-NH2] | – | 5.51 µM

Molecule | HD50 (concentration necessary to lyse 50% of the cells) [1] | IC50 [2]
Ac-IIIWFE-NH2 [Ac-IIIWFE-NH2] | – | 6.27 µM
Ac-IIIYCE-NH2 [Ac-IIIYCE-NH2] | – | 15.1 µM
Ac-IIIYFE-NH2 [Ac-IIIYFE-NH2] | – | 5.85 µM
Ac-IQIWCE-NH2 [Ac-IQIWCE-NH2] | – | 6.73 µM
Ac-IQIWFE-NH2 [Ac-IQIWFE-NH2] | – | 24 µM
Ac-IQIYCE-NH2 [Ac-IQIYCE-NH2] | – | 5.93 µM
Ac-IQIYCK-NH2 [Ac-IQIYCK-NH2] | – | 1310 µM
Ac-IQIYFE-NH2 [Ac-IQIYFE-NH2] | – | 19.9 µM
Ac-IVIFFA-NH2 [Ac-IVIFFA-NH2] | – | 33.3 µM
Ac-IVIFFC-NH2 [Ac-IVIFFC-NH2] | – | 92.1 µM
Ac-IVIFFD-NH2 [Ac-IVIFFD-NH2] | – | 12.6 µM
Ac-IVIFFE-NH2 [Ac-IVIFFE-NH2] | – | 17.3 µM
Ac-IVIFFF-NH2 [Ac-IVIFFF-NH2] | – | 205 µM
Ac-IVIFFG-NH2 [Ac-IVIFFG-NH2] | – | 29.9 µM
Ac-IVIFFH-NH2 [Ac-IVIFFH-NH2] | – | 36.8 µM
Ac-IVIFFI-NH2 [Ac-IVIFFI-NH2] | – | 105 µM
Ac-IVIFFK-NH2 [Ac-IVIFFK-NH2] | – | > 310 µM
Ac-IVIFFL-NH2 [Ac-IVIFFL-NH2] | – | 140 µM
Ac-IVIFFM-NH2 [Ac-IVIFFM-NH2] | – | 25.9 µM
Ac-IVIFFN-NH2 [Ac-IVIFFN-NH2] | – | 22.7 µM
Ac-IVIFFP-NH2 [Ac-IVIFFP-NH2] | – | 49 µM
Ac-IVIFFQ-NH2 [Ac-IVIFFQ-NH2] | – | 32.2 µM
Ac-IVIFFR-NH2 [Ac-IVIFFR-NH2] | – | > 299 µM
Ac-IVIFFS-NH2 [Ac-IVIFFS-NH2] | – | 27.4 µM
Ac-IVIFFT-NH2 [Ac-IVIFFT-NH2] | – | 30.8 µM
Ac-IVIFFV-NH2 [Ac-IVIFFV-NH2] | – | 38.6 µM

Molecule | HD50 (concentration necessary to lyse 50% of the cells) [1] | IC50 [2]
Ac-IVIFFW-NH2 [Ac-IVIFFW-NH2] | – | 18.5 µM
Ac-IVIFFY-NH2 [Ac-IVIFFY-NH2] | – | 24.9 µM
Ac-IVILLA-NH2 [Ac-IVILLA-NH2] | – | 22 µM
Ac-IVILLC-NH2 [Ac-IVILLC-NH2] | – | > 350 µM
Ac-IVILLD-NH2 [Ac-IVILLD-NH2] | – | 24.8 µM
Ac-IVILLE-NH2 [Ac-IVILLE-NH2] | – | 10.8 µM
Ac-IVILLF-NH2 [Ac-IVILLF-NH2] | – | 27.7 µM
Ac-IVILLG-NH2 [Ac-IVILLG-NH2] | – | 25.5 µM
Ac-IVILLH-NH2 [Ac-IVILLH-NH2] | – | > 334 µM
Ac-IVILLI-NH2 [Ac-IVILLI-NH2] | – | 35.9 µM
Ac-IVILLK-NH2 [Ac-IVILLK-NH2] | – | > 338 µM
Ac-IVILLL-NH2 [Ac-IVILLL-NH2] | – | 123 µM
Ac-IVILLM-NH2 [Ac-IVILLM-NH2] | – | 27 µM
Ac-IVILLN-NH2 [Ac-IVILLN-NH2] | – | 17.9 µM
Ac-IVILLP-NH2 [Ac-IVILLP-NH2] | – | 36.7 µM
Ac-IVILLQ-NH2 [Ac-IVILLQ-NH2] | – | 12.2 µM
Ac-IVILLR-NH2 [Ac-IVILLR-NH2] | – | > 326 µM
Ac-IVILLS-NH2 [Ac-IVILLS-NH2] | – | 21.5 µM
Ac-IVILLT-NH2 [Ac-IVILLT-NH2] | – | 25.3 µM
Ac-IVILLV-NH2 [Ac-IVILLV-NH2] | – | 98.6 µM
Ac-IVILLW-NH2 [Ac-IVILLW-NH2] | – | 6.27 µM
Ac-IVILLY-NH2 [Ac-IVILLY-NH2] | – | 12.9 µM
Ac-IVILTA-NH2 [Ac-IVILTA-NH2] | – | 19.4 µM
Ac-IVILTC-NH2 [Ac-IVILTC-NH2] | – | 27.1 µM
Ac-IVILTE-NH2 [Ac-IVILTE-NH2] | – | 33 µM
Ac-IVILTF-NH2 [Ac-IVILTF-NH2] | – | 13.4 µM

Molecule | HD50 (concentration necessary to lyse 50% of the cells) [1] | IC50 [2]
Ac-IVILTG-NH2 [Ac-IVILTG-NH2] | – | 33.5 µM
Ac-IVILTH-NH2 [Ac-IVILTH-NH2] | – | 76.1 µM
Ac-IVILTI-NH2 [Ac-IVILTI-NH2] | – | > 351 µM
Ac-IVILTK-NH2 [Ac-IVILTK-NH2] | – | > 344 µM
Ac-IVILTL-NH2 [Ac-IVILTL-NH2] | – | 14 µM
Ac-IVILTM-NH2 [Ac-IVILTM-NH2] | – | 12.3 µM
Ac-IVILTN-NH2 [Ac-IVILTN-NH2] | – | 19.6 µM
Ac-IVILTP-NH2 [Ac-IVILTP-NH2] | – | 70.4 µM
Ac-IVILTQ-NH2 [Ac-IVILTQ-NH2] | – | 15.1 µM
Ac-IVILTR-NH2 [Ac-IVILTR-NH2] | – | > 331 µM
Ac-IVILTS-NH2 [Ac-IVILTS-NH2] | – | 52.5 µM
Ac-IVILTT-NH2 [Ac-IVILTT-NH2] | – | 62.9 µM
Ac-IVILTV-NH2 [Ac-IVILTV-NH2] | – | 30.1 µM
Ac-IVILTW-NH2 [Ac-IVILTW-NH2] | – | 14 µM
Ac-IVILTY-NH2 [Ac-IVILTY-NH2] | – | 23.6 µM
Ac-MILWIE-NH2 [Ac-MILWIE-NH2] | – | 13 µM
Ac-VIQQFV-NH2 [Ac-VIQQFV-NH2] | – | 20.7 µM
Ac-WIQIFI-NH2 [Ac-WIQIFI-NH2] | – | 25.6 µM
DDEITF-NH2 [DDEITF-NH2] | – | 1630 µM
NDEIVF-NH2 [NDEIVF-NH2] | – | 853 µM
NDEIVI-NH2 [NDEIVI-NH2] | – | 444 µM
NEEIVF-NH2 [NEEIVF-NH2] | – | 1210 µM
NEEIVI-NH2 [NEEIVI-NH2] | – | 509 µM
